Assay results as given in PubChem BioAssay (NCI).
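Grown in 96-well plates, cells were treated for 48 hours with each compound at five concentrations. Insufficient inhibition: endpoint recorded as highest concentration tested. The concentration for 50% growth inhibition is given as GI50. TGI: total growth inhibition.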

Assays:
Assay in all cases: NCI-60 cell line screen, 48 h
RXF 393 renal = system: RXF 393 renal
NCI-H23 lung = system: NCI-H23 lung
MDA-MB-435 = system: MDA-MB-435
M14 melanoma = system: M14 melanoma
SW-620 colon = system: SW-620 colon
LOX IMVI melanoma = system: LOX IMVI melanoma
SN12C renal = system: SN12C renal
U251 CNS = system: U251 CNS
SNB-19 CNS = system: SNB-19 CNS
KM12 colon = system: KM12 colon
786-0 renal = system: 786-0 renal
CCRF-CEM leukemia = system: CCRF-CEM leukemia
A498 renal = system: A498 renal
RPMI-8226 leukemia = system: RPMI-8226 leukemia
HCC-2998 colon = system: HCC-2998 colon
SK-OV-3 ovarian = system: SK-OV-3 ovarian
HOP-62 NSCLC = system: HOP-62 NSCLC
UO-31 renal = system: UO-31 renal
DU-145 prostate = system: DU-145 prostate
OVCAR-3 ovarian = system: OVCAR-3 ovarian
MDA-MB-231 breast = system: MDA-MB-231 breast
UACC-257 melanoma = system: UACC-257 melanoma
SNB-75 CNS = system: SNB-75 CNS
NCI-H522 lung = system: NCI-H522 lung
EKVX NSCLC = system: EKVX NSCLC
HS 578T breast = system: HS 578T breast
MALME-3M melanoma = system: MALME-3M melanoma
BT-549 breast = system: BT-549 breast
OVCAR-5 ovarian = system: OVCAR-5 ovarian
A549 NSCLC = system: A549 NSCLC
CAKI-1 renal = system: CAKI-1 renal
MCF7 breast = system: MCF7 breast
PC-3 prostate = system: PC-3 prostate
COLO 205 colon = system: COLO 205 colon
NCI-H460 lung = system: NCI-H460 lung
NCI-H226 lung = system: NCI-H226 lung
SK-MEL-28 melanoma = system: SK-MEL-28 melanoma
OVCAR-4 ovarian = system: OVCAR-4 ovarian
K-562 leukemia = system: K-562 leukemia
OVCAR-8 ovarian = system: OVCAR-8 ovarian
HCT-15 colon = system: HCT-15 colon
SK-MEL-2 melanoma = system: SK-MEL-2 melanoma
NCI/ADR-RES ovarian = system: NCI/ADR-RES ovarian
UACC-62 melanoma = system: UACC-62 melanoma
HT29 colon = system: HT29 colon
ACHN renal = system: ACHN renal
T-47D breast = system: T-47D breast
SF-539 CNS = system: SF-539 CNS
SF-268 CNS = system: SF-268 CNS
TK-10 renal = system: TK-10 renal
IGROV1 ovarian = system: IGROV1 ovarian
MOLT-4 leukemia = system: MOLT-4 leukemia
HOP-92 NSCLC = system: HOP-92 NSCLC
HL-60(TB) leukemia = system: HL-60(TB) leukemia
SK-MEL-5 melanoma = system: SK-MEL-5 melanoma
SF-295 CNS = system: SF-295 CNS
HCT-116 colon = system: HCT-116 colon

Structure (SMILES): NC(=O)[C@@H](CCC(F)(F)F)N(Cc1ccc(-c2ncon2)cc1F)S(=O)(=O)c1ccc(Cl)cc1
- GI50 (RXF 393 renal): 20.8 µM
- TGI (RXF 393 renal): > 100 µM
- GI50 (NCI-H23 lung): 36.1 µM
- TGI (NCI-H23 lung): > 100 µM
- GI50 (MDA-MB-435): 21.3 µM
- TGI (MDA-MB-435): > 59.1 µM
- GI50 (M14 melanoma): 22.2 µM
- TGI (M14 melanoma): > 52.6 µM
- GI50 (SW-620 colon): > 59.9 µM
- TGI (SW-620 colon): > 100 µM
- GI50 (LOX IMVI melanoma): 29.9 µM
- TGI (LOX IMVI melanoma): > 100 µM
- GI50 (SN12C renal): 25.8 µM
- TGI (SN12C renal): > 57.8 µM
- GI50 (U251 CNS): > 49 µM
- TGI (U251 CNS): > 100 µM
- GI50 (SNB-19 CNS): > 50.6 µM
- TGI (SNB-19 CNS): > 100 µM
- GI50 (KM12 colon): 23.1 µM
- TGI (KM12 colon): > 56.3 µM
- GI50 (786-0 renal): > 40.5 µM
- TGI (786-0 renal): > 59 µM
- GI50 (CCRF-CEM leukemia): 20.8 µM
- TGI (CCRF-CEM leukemia): > 100 µM
- GI50 (A498 renal): 8.86 µM
- TGI (A498 renal): > 62.7 µM
- GI50 (RPMI-8226 leukemia): 14.5 µM
- TGI (RPMI-8226 leukemia): 64.4 µM
- GI50 (HCC-2998 colon): > 68.9 µM
- TGI (HCC-2998 colon): > 100 µM
- GI50 (SK-OV-3 ovarian): > 50.7 µM
- TGI (SK-OV-3 ovarian): > 89.9 µM
- GI50 (HOP-62 NSCLC): > 43.2 µM
- TGI (HOP-62 NSCLC): > 64.5 µM
- GI50 (UO-31 renal): 13.1 µM
- TGI (UO-31 renal): > 100 µM
- GI50 (DU-145 prostate): > 67.1 µM
- TGI (DU-145 prostate): > 100 µM
- GI50 (OVCAR-3 ovarian): 23.6 µM
- TGI (OVCAR-3 ovarian): > 60.5 µM
- GI50 (MDA-MB-231 breast): 36.3 µM
- TGI (MDA-MB-231 breast): > 100 µM
- GI50 (UACC-257 melanoma): 27.3 µM
- TGI (UACC-257 melanoma): > 85.6 µM
- GI50 (SNB-75 CNS): 53.3 µM
- TGI (SNB-75 CNS): > 100 µM
- GI50 (NCI-H522 lung): 48.8 µM
- TGI (NCI-H522 lung): > 100 µM
- GI50 (EKVX NSCLC): > 90.3 µM
- TGI (EKVX NSCLC): > 100 µM
- GI50 (HS 578T breast): 28.8 µM
- TGI (HS 578T breast): > 100 µM
- GI50 (MALME-3M melanoma): 32 µM
- TGI (MALME-3M melanoma): > 73.7 µM
- GI50 (BT-549 breast): 32.6 µM
- TGI (BT-549 breast): > 59 µM
- GI50 (OVCAR-5 ovarian): > 49.5 µM
- TGI (OVCAR-5 ovarian): > 100 µM
- GI50 (A549 NSCLC): 36.7 µM
- TGI (A549 NSCLC): > 100 µM
- GI50 (CAKI-1 renal): 13.7 µM
- TGI (CAKI-1 renal): > 62.8 µM
- GI50 (MCF7 breast): 28.4 µM
- TGI (MCF7 breast): > 100 µM
- GI50 (PC-3 prostate): 12.6 µM
- TGI (PC-3 prostate): > 100 µM
- GI50 (COLO 205 colon): 27.4 µM
- TGI (COLO 205 colon): > 57.2 µM
- GI50 (NCI-H460 lung): 30.6 µM
- TGI (NCI-H460 lung): > 100 µM
- GI50 (NCI-H226 lung): > 54.1 µM
- TGI (NCI-H226 lung): > 100 µM
- GI50 (SK-MEL-28 melanoma): 45.5 µM
- TGI (SK-MEL-28 melanoma): > 100 µM
- GI50 (OVCAR-4 ovarian): 44.5 µM
- TGI (OVCAR-4 ovarian): > 100 µM
- GI50 (K-562 leukemia): 34.9 µM
- TGI (K-562 leukemia): > 100 µM
- GI50 (OVCAR-8 ovarian): 46.8 µM
- TGI (OVCAR-8 ovarian): > 100 µM
- GI50 (HCT-15 colon): 69.6 µM
- TGI (HCT-15 colon): > 100 µM
- GI50 (SK-MEL-2 melanoma): 29.7 µM
- TGI (SK-MEL-2 melanoma): > 63.9 µM
- GI50 (NCI/ADR-RES ovarian): 47.5 µM
- TGI (NCI/ADR-RES ovarian): > 100 µM
- GI50 (UACC-62 melanoma): 18.2 µM
- TGI (UACC-62 melanoma): > 50.7 µM
- GI50 (HT29 colon): 21.3 µM
- TGI (HT29 colon): > 58.7 µM
- GI50 (ACHN renal): 26.7 µM
- TGI (ACHN renal): > 73.2 µM
- GI50 (T-47D breast): 21.3 µM
- TGI (T-47D breast): > 78.7 µM
- GI50 (SF-539 CNS): 31 µM
- TGI (SF-539 CNS): > 62.6 µM
- GI50 (SF-268 CNS): 39.6 µM
- TGI (SF-268 CNS): > 100 µM
- GI50 (TK-10 renal): 21 µM
- TGI (TK-10 renal): > 63.5 µM
- GI50 (IGROV1 ovarian): 51.7 µM
- TGI (IGROV1 ovarian): > 100 µM
- GI50 (MOLT-4 leukemia): 16.3 µM
- TGI (MOLT-4 leukemia): 54.7 µM
- GI50 (HOP-92 NSCLC): 8.88 µM
- TGI (HOP-92 NSCLC): 43.3 µM
- GI50 (HL-60(TB) leukemia): 23.7 µM
- TGI (HL-60(TB) leukemia): 65.6 µM
- GI50 (SK-MEL-5 melanoma): 15.8 µM
- TGI (SK-MEL-5 melanoma): 33.2 µM
- GI50 (SF-295 CNS): 35.3 µM
- TGI (SF-295 CNS): > 100 µM
- GI50 (HCT-116 colon): 35.3 µM
- TGI (HCT-116 colon): > 61.7 µM
